Assay results reported in patent publication US8710043B2, “TRPM8 antagonists and their use in treatments” (Amgen Inc., priority 2011, dated 2014).
pIC50: −log10 of the molar value.

Each compound was assayed against T1, human TRPM8 (Homo sapiens, UniProt Q7Z2W7) (assay: Luminescence readout assay for measuring intracellular calcium, icilin activation). Settings: CHO cells expressing human TRPM8, aequorin luminescence, 1 μM icilin activation; read-out: hTRPM8 IC50.
T1 construct: expressed in transfected cells; host or cells: Chinese hamster ovary (CHO) cells, T-REx tetracycline-inducible system, co-transfected with aequorin
Type: cell-based
Outline: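 The read-out was luminescence reporting intracellular calcium, recorded by a CCD-based luminometer. Compounds were preincubated for 2.5 min before agonist challenge with 1 μM icilin. Human TRPM8 was expressed in a stable T-REx CHO line, induced with 0.5 μg/mL tetracycline the day before.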

T1 sequence (Q7Z2W7 whole entry): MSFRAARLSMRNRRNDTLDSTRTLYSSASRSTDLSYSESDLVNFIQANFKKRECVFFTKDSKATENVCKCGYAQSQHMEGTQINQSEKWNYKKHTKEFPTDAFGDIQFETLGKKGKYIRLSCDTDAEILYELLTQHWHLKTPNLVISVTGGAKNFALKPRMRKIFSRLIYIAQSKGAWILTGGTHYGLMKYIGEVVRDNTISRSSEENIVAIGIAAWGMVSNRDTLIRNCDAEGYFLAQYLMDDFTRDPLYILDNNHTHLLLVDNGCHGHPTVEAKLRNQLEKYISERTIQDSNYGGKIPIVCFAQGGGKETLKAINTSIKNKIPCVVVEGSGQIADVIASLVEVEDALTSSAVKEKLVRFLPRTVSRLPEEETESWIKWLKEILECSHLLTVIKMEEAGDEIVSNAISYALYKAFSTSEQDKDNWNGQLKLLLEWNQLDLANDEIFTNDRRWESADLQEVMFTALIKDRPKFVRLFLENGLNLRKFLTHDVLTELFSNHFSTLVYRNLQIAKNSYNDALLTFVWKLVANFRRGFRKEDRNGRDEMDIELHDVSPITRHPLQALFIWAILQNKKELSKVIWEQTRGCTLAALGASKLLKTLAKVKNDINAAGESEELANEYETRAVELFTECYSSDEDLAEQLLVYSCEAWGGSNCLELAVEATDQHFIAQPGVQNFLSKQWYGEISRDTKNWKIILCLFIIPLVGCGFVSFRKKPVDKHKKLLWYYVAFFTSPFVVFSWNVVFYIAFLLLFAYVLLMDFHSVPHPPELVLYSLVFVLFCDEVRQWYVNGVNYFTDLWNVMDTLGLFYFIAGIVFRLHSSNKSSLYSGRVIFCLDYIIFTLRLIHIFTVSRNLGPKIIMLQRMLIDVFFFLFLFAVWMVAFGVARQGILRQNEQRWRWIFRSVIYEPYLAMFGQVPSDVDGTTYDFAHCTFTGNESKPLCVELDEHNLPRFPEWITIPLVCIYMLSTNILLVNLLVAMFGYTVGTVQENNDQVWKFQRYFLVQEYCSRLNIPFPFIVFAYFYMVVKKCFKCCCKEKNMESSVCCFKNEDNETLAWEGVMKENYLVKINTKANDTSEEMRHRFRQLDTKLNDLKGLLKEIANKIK

First: COc1ccccc1C(=O)N[C@@H](c1ccc(C(F)(F)F)cc1)c1ncccc1F [Example 169, (S)-N-((3-fluoropyridin-2-yl)(4-(trifluoromethyl)phenyl)methyl)-2-methoxybenzamide]
Second: COc1ncccc1C(=O)NC(c1ccc(C(F)(F)F)cc1)c1ncccc1F (centres unmarked) [Example 36, N-((3-fluoropyridin-2-yl)(4-(trifluoromethyl)phenyl)methyl)-2-methoxynicotinamide]
The pIC50 of the first is 0.84 log units higher: 7.98 for the first, 7.14 for the second. The first is the more potent here.

Compared with `O=C(N[C@@H](c1ccc(C(F)(F)F)cc1)c1ncccc1F)c1ccc2[nH]c(=O)[nH]c2c1` [Example 177, (S)-N-((3-fluoropyridin-2-yl)(4-(trifluoromethyl)phenyl)methyl)-2-oxo-2,3-dihydro-1H-benzo[d]imidazole-5-carboxamide], `O=C(NC(c1ccc(C(F)(F)F)cc1)c1ncccc1F)c1cccc(F)c1` (centres unmarked) [Example 209, 3-fluoro-N-((3-fluoropyridin-2-yl)(4-(trifluoromethyl)phenyl)methyl)benzamide] is 0.70 log units lower in pIC50: 7.68 for the first, 6.98 for the second.

Compared with `O=C1Cc2cc(C(=O)N[C@@H](c3ccc(OC(F)(F)F)c(F)c3)c3ncccc3F)ccc2N1` [Example 346, (S)-N-((3-fluoro-4-(trifluoromethoxy)phenyl)(3-fluoropyridin-2-yl)methyl)-2-oxoindoline-5-carboxamide], `Cn1c(=O)c(=O)n(O)c2ccc(C(=O)N[C@@H](c3ccc(OC(F)(F)F)c(F)c3)c3ncccc3F)cc21` [Example 436, (S)—N-((3-Fluoro-4-(trifluoromethoxy)phenyl)(3-fluoropyridin-2-yl)methyl)-1-hydroxy-4-methyl-2,3-dioxo-1,2,3,4-tetrahydroquinoxaline-6-carboxamide] is 0.30 log units lower in pIC50: 7.95 for the first, 7.65 for the second.

Compared with `Cn1ccc(C(=O)N[C@@H](c2ccc(C(F)(F)F)cc2)c2ncccc2C(F)(F)F)n1` [Example 192, (S)-1-methyl-N-((4-(trifluoromethyl)phenyl)(3-(trifluoromethyl)pyridin-2-yl)methyl)-1H-pyrazole-3-carboxamide], `O=C(N[C@@H](c1ccc(C(F)(F)F)cc1)c1ncccc1C(F)(F)F)c1ccccn1` [Example 228, (S)-N-((4-(trifluoromethyl)phenyl)(3-(trifluoromethyl)pyridin-2-yl)methyl)picolinamide] is 0.30 log units higher in pIC50: 7.10 for the first, 7.40 for the second. The second is the more potent here.

Going from `O=C(N[C@@H](c1ccc(OC(F)(F)F)cc1)c1ncccc1F)c1cccs1` [Example 374, (S)-N-((3-fluoropyridin-2-yl)(4-(trifluoromethoxy)phenyl)methyl)thiophene-2-carboxamide] to `Cc1cccnc1[C@@H](NC(=O)c1ccc(=O)[nH]c1)c1ccc(OC(F)(F)F)cc1` [Example 359, (S)-N-((3-methylpyridin-2-yl)(4-(trifluoromethoxy)phenyl)methyl)-6-oxo-1,6-dihydropyridine-3-carboxamide], the pIC50 rises from 7.28 to 7.87 (0.59 log units). The second is the more potent here.

`Cc1ccc([C@H](NC(=O)c2ccc(=O)[nH]c2)c2ncccc2F)cc1C` [Example 380, (S)-N-((3,4-dimethylphenyl)(3-fluoropyridin-2-yl)methyl)-6-oxo-1,6-dihydropyridine-3-carboxamide] and `Cc1ccc([C@H](NC(=O)c2ccc(=O)[nH]c2)c2ncccc2F)cc1` [Example 379, (S)-N-((3-fluoropyridin-2-yl)(p-tolyl)methyl)-6-oxo-1,6-dihydropyridine-3-carboxamide] are within 0.2 log units of each other in pIC50: 6.61 for the first, 6.57 for the second.

Compared with `O=C(N[C@@H](c1ccc(C(F)(F)F)cc1)c1ncccc1C(F)(F)F)c1ccn2ccnc2c1` [Example 87, (S)-N-((4-(trifluoromethyl)phenyl)(3-(trifluoromethyl)pyridin-2-yl)methyl)imidazo[1,2-a]pyridine-7-carboxamide], `O=C(N[C@@H](c1ccc(C(F)(F)F)cc1)c1ncccc1C(F)(F)F)c1ccncc1` [Example 178, (S)-N-((4-(trifluoromethyl)phenyl)(3-(trifluoromethyl)pyridin-2-yl)methyl)isonicotinamide] is 0.47 log units lower in pIC50: 8.05 for the first, 7.58 for the second.

First: O=C(N[C@@H](c1ccc(C(F)(F)F)cc1)c1ncccc1C(F)(F)F)c1cncc(O)c1 [Example 58, (S)-5-hydroxy-N-((4-(trifluoromethyl)phenyl)(3-(trifluoromethyl)pyridin-2-yl)methyl)nicotinamide]
Second: O=C(N[C@@H](c1ccc(C(F)(F)F)cc1)c1ncccc1C(F)(F)F)c1cnc(O)nc1 [Example 266, (S)-2-Hydroxy-N-((4-(trifluoromethyl)phenyl)(3-(trifluoro-methyl)pyridin-2-yl)methyl)pyrimidine-5-carboxamide]
The pIC50 of the first is 0.54 log units higher: 7.19 for the first, 6.65 for the second.

First: COc1ccc(C(=O)N[C@@H](c2ccc(C(F)(F)F)cc2)c2ncccc2C(F)(F)F)cc1 [Example 171, (S)-4-methoxy-N-((4-(trifluoromethyl)phenyl)(3-(trifluoromethyl)pyridin-2-yl)methyl)benzamide]
Second: O=C(N[C@@H](c1ccc(C(F)(F)F)cc1)c1ncccc1C(F)(F)F)c1ccc2cn[nH]c2c1 [Example 175, (S)-N-((4-(trifluoromethyl)phenyl)(3-(trifluoromethyl)pyridin-2-yl)methyl)-1H-indazole-6-carboxamide]
The pIC50 of the first is 0.24 log units higher: 7.76 for the first, 7.52 for the second.

Going from `COc1ccc2cc([C@H](NC(=O)c3ccc4cccnc4c3)c3ncccc3C(F)(F)F)cnc2c1` [Example 8, (S)-N-((7-methoxyquinolin-3-yl)(3-(trifluoromethyl)pyridin-2-yl)methyl)quinoline-7-carboxamide] to `O=C(N[C@@H](c1ccc(C(F)(F)F)c(F)c1)c1ncccc1C(F)(F)F)c1ccc2ncccc2c1` [Example 130, (S)-N-((3-fluoro-4-(trifluoromethyl)phenyl)(3-(trifluoromethyl)pyridin-2-yl)methyl)quinoline-6-carboxamide bis (2,2,2-trifluoroacetate)], the pIC50 rises from 7.27 to 7.61 (0.34 log units). The second is the more potent here.

Going from `O=C(NC(c1ccc(F)cc1)c1ccc(OC(F)(F)F)c(F)c1)c1ccc(=O)[nH]c1` (centres unmarked) [Example 411, N-((3-fluoro-4-(trifluoromethoxy)phenyl)(4-fluorophenyl)methyl)-6-oxo-1,6-dihydropyridine-3-carboxamide] to `COc1ccc(C(NC(=O)c2ccc(=O)[nH]c2)c2ccc(OC(F)(F)F)c(F)c2)nc1` (centres unmarked) [Example 421], the pIC50 falls from 6.85 to 6.21 (0.64 log units).

First: N#Cc1ccc(C(=O)N[C@@H](c2ccc(C(F)(F)F)cc2)c2ncccc2C(F)(F)F)nc1 [Example 275, (S)-5-Cyano-N-((4-(trifluoromethyl)phenyl)(3-(trifluoro-methyl)pyridin-2-yl)methyl)picolinamide]
Second: N#Cc1cccc(C(=O)N[C@@H](c2ccc(C(F)(F)F)cc2)c2ncccc2C(F)(F)F)c1 [Example 168, (S)-3-cyano-N-((4-(trifluoromethyl)phenyl)(3-(trifluoromethyl)pyridin-2-yl)methyl)be]
The pIC50 of the first is 0.26 log units lower: 7.16 for the first, 7.42 for the second. The second is the more potent here.

First: Cc1ncsc1CCC(=O)N[C@@H](c1ccc(C(F)(F)F)cc1)c1ncccc1C(F)(F)F [Example 145, (S)-3-(4-methylthiazol-5-yl)-N-((4-(trifluoromethyl)phenyl)(3-(trifluoromethyl)pyridin-2-yl)methyl)propanamide]
Second: COc1ccc(C(=O)N[C@@H](c2ccc(C(F)(F)F)cc2)c2ncccc2C(F)(F)F)nn1 [Example 37, (S)-6-methoxy-N-((4-(trifluoromethyl)phenyl)(3-(trifluoromethyl)pyridin-2-yl)methyl)pyridazine-3-carboxamide]
The pIC50 of the first is 0.23 log units higher: 7.07 for the first, 6.84 for the second. The first is the more potent here.

Going from `O=C(Cc1ccccc1)N[C@@H](c1ccc(C(F)(F)F)cc1)c1ncccc1C(F)(F)F` [Example 218, (S)-2-phenyl-N-((4-(trifluoromethyl)phenyl)(3-(trifluoromethyl)pyridin-2-yl)methyl)acetamide] to `O=C(O)c1cccc(C(=O)N[C@@H](c2ccc(C(F)(F)F)cc2)c2ncccc2C(F)(F)F)c1` [Example 179, (S)-3-(((4-(trifluoromethyl)phenyl)(3-(trifluoromethyl)pyridin-2-yl)methyl)carbamoyl)benzoic acid], the pIC50 rises from 6.64 to 7.40 (0.76 log units). The second is the more potent here.

`CC#Cc1cccnc1[C@@H](NC(=O)c1ccccc1)c1ccc(C(F)(F)F)cc1` [Example 98, (S)-N-((3-(prop-1-yn-1-yl)pyridin-2-yl)(4-(trifluoromethyl)phenyl)methyl)benzamide] and `O=C(N[C@@H](c1ccc(C(F)(F)F)cc1)c1ncccc1C(F)(F)F)c1cccc(C(F)(F)F)c1` [Example 211, (S)-3-(trifluoromethyl)-N-((4-(trifluoromethyl)phenyl)(3-(trifluoromethyl)pyridin-2-yl)methyl)benzamide] are within 0.2 log units of each other in pIC50: 6.90 for the first, 6.94 for the second.

Going from `O=C(N[C@@H](c1ccc(C(F)(F)F)cc1)c1ncccc1C(F)(F)F)c1ccc2cc[nH]c2n1` [Example 67, (S)-N-((4-(trifluoromethyl)phenyl)(3-(trifluoromethyl)pyridin-2-yl)methyl)-1H-pyrrolo[2,3-b]pyridine-6-carboxamide] to `O=C(N[C@@H](c1ccc(C(F)(F)F)cc1)c1ncccc1C(F)(F)F)c1ccc2c(O)ccnc2c1` [Example 106, (S)-4-hydroxy-N-((4-(trifluoromethyl)phenyl)(3-(trifluoromethyl)pyridin-2-yl)methyl)quinoline-7-carboxamide 2,2,2-trifluoroacetate], the pIC50 rises from 7.40 to 8.05 (0.65 log units).

Compared with `O=C(N[C@@H](c1ccc(C(F)(F)F)cc1)c1ncccc1C(F)(F)F)c1ccc(C(=O)O)c(Br)c1` [Example 100, (S)-2-bromo-4-(((4-(trifluoromethyl)phenyl)(3-(trifluoromethyl)pyridin-2-yl)methyl)carbamoyl)benzoic acid], `O=C(N[C@@H](c1ccc(C(F)(F)F)cc1)c1ncccc1C(F)(F)F)C1CCOCC1` [Example 152, (S)-N-((4-(trifluoromethyl)phenyl)(3-(trifluoromethyl)pyridin-2-yl)methyl)tetrahydro-2H-pyran-4-carboxamide] is 0.87 log units lower in pIC50: 7.21 for the first, 6.34 for the second. The first is the more potent here.

`O=C1COc2c(cccc2C(=O)N[C@@H](c2ccc(C(F)(F)F)cc2)c2ncccc2F)N1` [Example 77] showed a pIC50 of 7.28.
